Data reported in article PMC4674085, “Towards Prebiotic Catalytic Amyloids Using High Throughput Screening” (PLoS ONE, 2015).

Assay: NMR-based 4NPA hydrolysis assay at pH 4.3
Format: biochemical
Conditions: 4NPA hydrolysis by 1D-1H NMR, 50 mM d3-NaOAc pH 4.3, 2% d6-DMSO, 40 μM total purified peptide (mixture 20 μM each), 0.9 mM 4NPA, 25°C, over 15 days, first order fit, no zinc(II)
Description: Purified peptides were solubilized in deuterated DMSO with 1% TFA at a concentration of 4 mM and subsequently diluted to 160 μM in 50 mM deuterated NaOAc buffer at pH 4.3. In the case of the peptide mixture fibrillization (12/21), each peptide was 80 μM. Fibrillization occurred over 5 days after which the sample was diluted to 40 μM total peptide in 50 mM buffer with 0.9 mM 4NPA (from a 90 mM stock solution in d6-DMSO) and a final concentration of d6-DMSO of 2%. From this reaction mixture 500 μl was transferred to a 5 mm NMR tube and measurements were performed in a 600 MHz Bruker NMR spectrometer equipped with a cryo-probe.
The hydrolysis kinetics were monitored in a continuous series of 1D-^1H experiments each consisting of 32 scans at 25°C and each requiring 17 min. In this manner, several time segments lasting between 8 and 17 hours were collected over a period of 15 days. Between measurements, the samples were kept at 25°C.
Data processing and peak integration was performed with Topspin3.2 (Bruker). Relevant peaks used for the analysis were the 4 aromatic protons of both 4NPA and of its product (p-nitrophenol) as well as the methyl groups of 4NPA and acetic acid. The ratio of the sum of integrals for the product protons to the sum of integrals for all protons was used to calculate the substrate concentration. […]

With “Ac-YVHVHVDV-NH2 [Peptide 21, Ac-YVHVHVDV-CONH2]” the “k cat/K M” value was 1598±20 10^-6M^-1s^-1.
